Reference: patent US12440542B1, “Kits for preparing and delivering purified corticotropin” (ANI Pharmaceuticals, Inc., priority 2022, dated 2025)

What follows are molecules tested on THP-1 Blue, Raw Blue, HEK-blue hTLR3, HEK-Blue hTLR4, HEK-Blue hNOD2 (assay: Activation of innate immune response in reporter cell lines covering TLR and NOD2 expression). Details: 5 cell lines; 3 PPQ lots; highest drug substance concentration tested 10 μg/mL.
Type: cell-based
Description: Method development, qualification, and testing for activation of innate immune response was performed. The innate immune assays performed compared 3 PPQ lots. The work was conducted using 5 cell lines to cover TLR and NOD2 expression (THP-1 Blue, Raw Blue, HEK-blue hTLR3, HEK-Blue hTLR4, HEK-Blue hNOD2). […] The highest drug substance concentration tested was 10 μg/mL. A dose of the sterile preparation of purified corticotropin at 80 U is, equivalent to approximately 1 mg of drug substance per total body weight of subject.

Row | Molecule | dose response in innate immune assays
1 | CC(=O)N[C@@H]1[C@@H](O[C@H](C)C(=O)N[C@@H](C)C(=O)N[C@H](CCC(=O)O)C(N)=O)[C@H](O)[C@@H](CO)O[C@H]1O [MDP] | robust dose responses
2 | CCCc1nc2c(N)nc3ccccc3c2s1 [CL075] | robust dose responses
3 | FSL-1 | robust dose responses
